What was measured:
[1] = Liquid, Closed cell (Static) method
[2] = compressibility factor (dimensionless); settings: Gas, Burnett expansion method

[N-]=[N+]=O [nitrous oxide]
[1]
Settings | vapor or sublimation pressure [kPa]
219.24 K | 554.7
222.28 K | 626.3
223.31 K | 652.8
227.32 K | 759.6
227.36 K | 760.6
232.37 K | 912.1
232.43 K | 915.4
237.49 K | 1092.9
242.57 K | 1294.7
247.65 K | 1521.9
252.73 K | 1777
257.8 K | 2061.8
257.87 K | 2065.4
262.9 K | 2379
262.95 K | 2381.8
267.98 K | 2730.6
268.03 K | 2734
273.08 K | 3119.9

[2]
Settings | compressibility factor
283.5 K, 207.4 kPa | 0.9884
283.5 K, 308.1 kPa | 0.9809
283.5 K, 456.3 kPa | 0.9705
283.5 K, 672.4 kPa | 0.9554
283.5 K, 983.6 kPa | 0.9337
283.5 K, 1422.1 kPa | 0.9019
283.5 K, 2020 kPa | 0.8558
283.5 K, 2788.1 kPa | 0.7891
283.5 K, 3680.3 kPa | 0.6958
283.51 K, 170.6 kPa | 0.9917
283.51 K, 253.7 kPa | 0.9848
283.51 K, 376.3 kPa | 0.9761
283.51 K, 556.2 kPa | 0.9636
283.51 K, 816.9 kPa | 0.9456
283.51 K, 1188.9 kPa | 0.9193
283.51 K, 1705.3 kPa | 0.8809
283.51 K, 2390.6 kPa | 0.825
283.51 K, 3232.1 kPa | 0.7451
304.09 K, 194 kPa | 0.99
304.09 K, 288.7 kPa | 0.9846
304.09 K, 429.3 kPa | 0.9779
304.09 K, 635.2 kPa | 0.9666
304.09 K, 935.6 kPa | 0.9511
304.09 K, 1366.6 kPa | 0.9281
304.09 K, 1968.7 kPa | 0.8932
304.09 K, 2781.3 kPa | 0.843
304.09 K, 3812.3 kPa | 0.772
304.1 K, 204 kPa | 0.9912
304.1 K, 303.6 kPa | 0.9853
304.1 K, 450.8 kPa | 0.9772
304.1 K, 666.7 kPa | 0.9655
304.1 K, 980.2 kPa | 0.9484
304.1 K, 1428.5 kPa | 0.9233
304.1 K, 2054.5 kPa | 0.8871
304.1 K, 2893.4 kPa | 0.8347
304.1 K, 3945.6 kPa | 0.7604
314.41 K, 193.8 kPa | 0.9927
314.41 K, 288.6 kPa | 0.9878
314.41 K, 429 kPa | 0.9808
314.41 K, 635.5 kPa | 0.9706
314.41 K, 936.8 kPa | 0.9558
314.41 K, 1371.3 kPa | 0.9347
314.41 K, 1984.4 kPa | 0.9036
314.41 K, 2822.9 kPa | 0.8587
314.41 K, 3911.4 kPa | 0.7949
314.42 K, 201.1 kPa | 0.992
314.42 K, 299.5 kPa | 0.9869
314.42 K, 445.1 kPa | 0.9798
314.42 K, 659.3 kPa | 0.9696
314.42 K, 971.5 kPa | 0.9545
314.42 K, 1420.6 kPa | 0.9324
314.42 K, 2052.9 kPa | 0.9001
314.42 K, 2915.1 kPa | 0.8539
314.42 K, 4027.4 kPa | 0.7881
324.78 K, 182.9 kPa | 0.9923
324.78 K, 272.8 kPa | 0.9888
324.78 K, 406.1 kPa | 0.9831
324.78 K, 602.6 kPa | 0.9746
324.78 K, 891.4 kPa | 0.9631
324.78 K, 1309.1 kPa | 0.9449
324.78 K, 1904.7 kPa | 0.9185
324.78 K, 2731.6 kPa | 0.88
324.78 K, 3833.8 kPa | 0.8251
324.79 K, 183.9 kPa | 0.9933
324.79 K, 274.1 kPa | 0.9891
324.79 K, 407.9 kPa | 0.9833
324.79 K, 605.3 kPa | 0.9748
324.79 K, 894.5 kPa | 0.9623
324.79 K, 1313.6 kPa | 0.9441
324.79 K, 1910.8 kPa | 0.9174
324.79 K, 2740 kPa | 0.8789
324.79 K, 3845.5 kPa | 0.824
335.16 K, 175.4 kPa | 0.9949
335.16 K, 261.7 kPa | 0.9913
335.16 K, 389.8 kPa | 0.9864
335.16 K, 579.2 kPa | 0.9792
335.16 K, 857.6 kPa | 0.9686
335.16 K, 1263.2 kPa | 0.9531
335.16 K, 1845.9 kPa | 0.9304
335.16 K, 2665.8 kPa | 0.8977
335.16 K, 3777.8 kPa | 0.8498
335.18 K, 188.5 kPa | 0.9942
335.18 K, 281 kPa | 0.9902
335.18 K, 418.3 kPa | 0.9847
335.18 K, 621.3 kPa | 0.9772
335.18 K, 919.2 kPa | 0.9658
335.18 K, 1352.3 kPa | 0.9492
335.18 K, 1972.3 kPa | 0.9248
335.18 K, 2839.6 kPa | 0.8895
335.18 K, 4008.4 kPa | 0.8389
345.51 K, 185.8 kPa | 0.9943
345.51 K, 277.2 kPa | 0.991
345.51 K, 413 kPa | 0.9863
345.51 K, 613.8 kPa | 0.9794
345.51 K, 909.5 kPa | 0.9693
345.51 K, 1340.3 kPa | 0.9543
345.51 K, 1960.2 kPa | 0.9324
345.51 K, 2834.5 kPa | 0.9008
345.51 K, 4029 kPa | 0.8553
345.58 K, 184.6 kPa | 0.9943
345.58 K, 275.5 kPa | 0.9911
345.58 K, 410.4 kPa | 0.9865
345.58 K, 610.1 kPa | 0.9797
345.58 K, 903.9 kPa | 0.9697
345.58 K, 1332.3 kPa | 0.9548
345.58 K, 1949.3 kPa | 0.9332
345.58 K, 2819.4 kPa | 0.9017
345.58 K, 4008.9 kPa | 0.8565
364.36 K, 207.6 kPa | 0.9928
364.36 K, 241.7 kPa | 0.9925
364.36 K, 309.9 kPa | 0.9907
364.36 K, 360.3 kPa | 0.9889
364.36 K, 462 kPa | 0.9871
364.36 K, 536.5 kPa | 0.9843
364.36 K, 687.1 kPa | 0.9812
364.36 K, 797.5 kPa | 0.9779
364.36 K, 1018.5 kPa | 0.9723
364.36 K, 1179.8 kPa | 0.967
364.36 K, 1502.7 kPa | 0.9588
364.36 K, 1737 kPa | 0.9517
364.36 K, 2201.5 kPa | 0.9389
364.36 K, 2535.6 kPa | 0.9285
364.36 K, 3191.1 kPa | 0.9097
364.36 K, 3655.3 kPa | 0.8947
364.36 K, 4555 kPa | 0.8679
364.36 K, 5179.9 kPa | 0.8475

— the NIST ThermoML archive (doi:10.1021/je049842u)
